The results in this text go back to BindingDB's records for doi:10.1021/jm060742o (Rheinische Friedrich-Wilhelms-Universitat Bonn, 2006).

By Ki is commonly meant a measure of affinity in units of concentration, obtained from inhibition or displacement. A lower Ki goes with higher affinity. What is called IC50 is the concentration that gives 50% inhibition. Lower therefore signals greater potency.

Holding throughout (assay): Cholinesterase Inhibition Assay
For assay [1], the target named is Acetylcholinesterase (Electrophorus electricus, UniProt O42275). The procedure:
(§1) The cholinesterase assays were performed using colorimetric method reported by Ellman. The absorbance changed at 412 nm and was monitored with spectrophotometer. The reaction rates were compared and the percent inhibition due to the presence of test compounds was calculated. Inhibition curve was obtained for each compound. The compound concentration producing 50% of enzyme inhibition (IC50) was determined.

In assay [2] the target is Acetylcholinesterase (Homo sapiens, UniProt P22303). The settings on record: pH 7.3; 25 °C. On the procedure: as §1
Acetylcholinesterase (Homo sapiens, UniProt P22303), sequence (P22303 whole entry): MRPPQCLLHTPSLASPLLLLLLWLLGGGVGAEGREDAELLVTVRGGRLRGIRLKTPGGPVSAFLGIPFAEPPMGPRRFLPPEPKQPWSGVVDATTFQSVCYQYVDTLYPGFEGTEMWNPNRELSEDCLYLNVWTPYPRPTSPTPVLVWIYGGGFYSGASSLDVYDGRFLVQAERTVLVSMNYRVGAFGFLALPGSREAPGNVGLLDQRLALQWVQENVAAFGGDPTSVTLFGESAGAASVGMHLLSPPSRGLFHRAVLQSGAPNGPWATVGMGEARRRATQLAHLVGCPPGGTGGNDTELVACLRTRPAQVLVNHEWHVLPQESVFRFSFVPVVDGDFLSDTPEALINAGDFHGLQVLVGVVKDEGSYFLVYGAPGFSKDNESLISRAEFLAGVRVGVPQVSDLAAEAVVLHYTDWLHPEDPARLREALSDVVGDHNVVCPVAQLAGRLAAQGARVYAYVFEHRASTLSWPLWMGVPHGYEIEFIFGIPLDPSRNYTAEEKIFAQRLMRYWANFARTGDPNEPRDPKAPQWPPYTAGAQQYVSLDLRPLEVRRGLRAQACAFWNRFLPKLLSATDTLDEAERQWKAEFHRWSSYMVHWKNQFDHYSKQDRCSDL
Assay [3] addresses Acetylcholinesterase (Tetronarce californica, UniProt P04058). On the procedure:
as §1

A further assay concerns the target Cholinesterase (Homo sapiens, UniProt P06276). The procedure:
as §1

Acetylcholinesterase (Electrophorus electricus, UniProt O42275), sequence (O42275 whole entry): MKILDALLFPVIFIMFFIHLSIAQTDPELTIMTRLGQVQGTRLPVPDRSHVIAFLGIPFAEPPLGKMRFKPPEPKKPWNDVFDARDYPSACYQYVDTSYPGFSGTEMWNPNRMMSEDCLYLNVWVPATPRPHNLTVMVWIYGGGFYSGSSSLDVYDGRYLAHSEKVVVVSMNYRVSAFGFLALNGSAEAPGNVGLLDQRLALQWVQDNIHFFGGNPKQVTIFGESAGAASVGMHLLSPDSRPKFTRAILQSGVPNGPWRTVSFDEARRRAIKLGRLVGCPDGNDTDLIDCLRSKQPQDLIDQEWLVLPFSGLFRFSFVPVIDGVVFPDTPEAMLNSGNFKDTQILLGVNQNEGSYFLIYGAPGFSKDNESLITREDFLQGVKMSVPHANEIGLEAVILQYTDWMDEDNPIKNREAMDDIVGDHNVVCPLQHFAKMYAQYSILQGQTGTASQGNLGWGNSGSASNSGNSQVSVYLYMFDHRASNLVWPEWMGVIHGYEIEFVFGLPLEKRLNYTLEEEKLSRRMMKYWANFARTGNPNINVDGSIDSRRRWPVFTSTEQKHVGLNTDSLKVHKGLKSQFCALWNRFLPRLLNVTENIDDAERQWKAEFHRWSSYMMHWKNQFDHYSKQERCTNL
Acetylcholinesterase (Tetronarce californica, UniProt P04058), sequence (P04058 whole entry): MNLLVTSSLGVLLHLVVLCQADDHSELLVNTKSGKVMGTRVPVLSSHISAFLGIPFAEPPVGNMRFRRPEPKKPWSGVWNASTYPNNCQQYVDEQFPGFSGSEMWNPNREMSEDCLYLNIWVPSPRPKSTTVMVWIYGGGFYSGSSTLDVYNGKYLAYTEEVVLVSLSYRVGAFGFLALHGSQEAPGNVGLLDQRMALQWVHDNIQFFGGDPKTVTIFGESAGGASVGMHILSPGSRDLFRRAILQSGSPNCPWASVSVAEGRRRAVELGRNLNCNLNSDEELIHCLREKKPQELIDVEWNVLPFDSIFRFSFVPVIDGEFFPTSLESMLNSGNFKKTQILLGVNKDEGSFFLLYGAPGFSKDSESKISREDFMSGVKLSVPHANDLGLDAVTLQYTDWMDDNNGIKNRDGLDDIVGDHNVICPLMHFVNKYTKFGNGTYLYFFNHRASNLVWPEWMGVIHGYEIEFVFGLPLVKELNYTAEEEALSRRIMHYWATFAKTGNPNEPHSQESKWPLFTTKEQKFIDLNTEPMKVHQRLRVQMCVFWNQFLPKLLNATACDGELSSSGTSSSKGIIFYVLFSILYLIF
Cholinesterase, sequence (P06276 whole entry): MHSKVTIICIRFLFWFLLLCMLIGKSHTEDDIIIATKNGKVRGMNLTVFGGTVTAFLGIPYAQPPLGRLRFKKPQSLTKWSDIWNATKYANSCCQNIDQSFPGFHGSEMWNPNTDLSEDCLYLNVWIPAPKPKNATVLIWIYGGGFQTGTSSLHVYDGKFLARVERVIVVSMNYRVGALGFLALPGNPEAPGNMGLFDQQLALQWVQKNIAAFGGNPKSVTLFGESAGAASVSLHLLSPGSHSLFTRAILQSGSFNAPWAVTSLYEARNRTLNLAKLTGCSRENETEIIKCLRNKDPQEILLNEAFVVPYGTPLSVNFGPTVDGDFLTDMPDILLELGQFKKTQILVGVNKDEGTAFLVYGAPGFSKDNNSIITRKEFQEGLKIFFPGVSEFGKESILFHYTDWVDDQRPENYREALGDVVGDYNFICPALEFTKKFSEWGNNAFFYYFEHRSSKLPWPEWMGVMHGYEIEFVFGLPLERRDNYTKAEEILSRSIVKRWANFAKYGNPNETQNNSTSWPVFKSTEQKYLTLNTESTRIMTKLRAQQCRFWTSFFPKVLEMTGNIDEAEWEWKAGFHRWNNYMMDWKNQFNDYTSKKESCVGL

Compound `COc1cc(C(=O)NCCCCCCCC(=O)NNc2c3c(nc4ccccc24)CCCC3)cc(OC)c1OC` [3,4,5-trimethoxy-N-[7-(N'-1,2,3,4-tetrahydroacridin-9-ylhydrazinecarbonyl)heptyl]benzamide] yielded a Ki on Acetylcholinesterase [1] of 3.23 nM.

Turning to `COc1cc(C(=O)NCCCCCCCCC(=O)NNc2c3c(nc4ccccc24)CCCC3)cc(OC)c1OC` [3,4,5-Trimethoxy-N-(9-oxo-9-(2-(1,2,3,4-tetrahydroacridin-9-yl)hydrazino)nonyl)-benzamide], the IC50 at Acetylcholinesterase [1] came out at 2.73 nM; at Acetylcholinesterase [2], 5.08 nM; against Acetylcholinesterase [3], 5.99 nM; against Cholinesterase, 1.38 nM.
